Reference: patent US8629100B2, “Method of inhibiting clostridium difficile by administration of oritavancin” (The Medicines Company, priority 2007, dated 2014)
Values after ≈ are worked out from the molar mass of the structure shown.

How the values were obtained:
[1] = system: C. difficile spores; assay: Agar-based culture: spore recovery after antimicrobial exposure; format: cell-based; conditions: 350 mg/L, 1 min and 30 min, filtered onto CAF, 48 h
Procedure: Antimicrobial-spore solutions were mixed, diluted (to sub-MIC) in sterile de-ionised water, filtered onto cellulose acetate filters (CAF, 0.45 μm) and washed. CAF were transferred onto Brazier's agar (pH 7)+5 mg/L lysozyme, and following anaerobic incubation (37° C., 48 h), % C. difficile spores (vs. control) were determined.

[2] = system: Oxford S. aureus; assay: Antimicrobial-spore binding: washed exposed spores on S. aureus lawn (Example 3D); format: cell-based, Staphylococcus aureus; conditions: spores suspended in 350 mg/L; after 0, 1, 2, 4, 5, 6, 9 and 10 washes
Procedure: A further potential explanation for the failure to recover oritavancin-treated C. difficile spores from the above experiments (in addition to presence of the drug in cellulose acetate filters) is that oritavancin may be able to bind C. difficile spores and directly damage spores, or inhibit spore germination and/or outgrowth. A simple experiment was conducted in order to assess antimicrobial-spore binding:
Two solutions were prepared:
1) C. difficile spores (PCR ribotype 001, control), and
2) C. difficile spores suspended in 350 mg/L oritavancin (diluent: Tween-80-H2O).
Fresh blood agar was inoculated with a lawn of the Oxford S. aureus. In one replicate, C. difficile spores were centrifuged (16000 g, 5 min), the supernatants removed and pellets re-suspended in 500 μL of Tween-80-H2O. 10 μL of the re-suspended spore suspension was inoculated onto the surface S. aureus lawn.
In another replicate, C. difficile spore suspensions were washed a total of 10 times using this procedure and inoculated onto the surface of the S. aureus lawn.
In both replicates agar was incubated aerobically at 37° C. overnight, and then the presence or absence of zones of inhibition were recorded.

[3] = system: C. difficile ATCC 43255; assay: Hamster model of CDI, intravenous administration; format: in vivo, Syrian golden hamsters
Procedure: C. difficile ATCC 43255 was used in all experiments. This strain was originally isolated from an abdominal wound and is toxin A+/B+ and binary toxin negative. C. difficile spores were prepared for the infection by incubating C. difficile cells on blood agar plate at 37° C. anaerobically for 7 days, to promote spore formation. The C. difficile colonies were resuspended in phosphate buffered saline (PBS) and mixed with an equal volume of 100% ethanol for one hour. The spores were centrifuged, resuspended in PBS, aliquoted, and frozen at −20° C. Spores were diluted in PBS for oral inoculation into hamsters.
All studies were performed in accordance with protocols that were approved by the Institutional Animal Care and Use Committee. […] One day later (Day 0), animals were infected orally with 10^5 C. difficile spores by oral gavage.
Starting on Day 1 post-infection, either vehicle, vancomycin (50 mg/kg), or oritavancin formulated in 10% hydroxypropyl β-cyclodextrin (HPCD) (50 mg/kg) was administered intravenously […] to the hamsters (n=10/group). A total of either 1, 2 or 3 doses of oritavancin was injected on Days 1, 3, and 5, respectively (q2d).
The infected hamsters received the first dose of antibiotic on day 1 and treatment was repeated each 2 days for up to five days; an untreated group was used as control.

[4] = system: S. aureus NCTC 6571; assay: Agar incorporation MIC against S. aureus NCTC 6571; format: cell-based; conditions: Staphylococcus aureus, NCTC6571; agar incorporation methodology
[5] = three intravenous doses 50 mg/kg q2d (Days 1, 3, 5)

Structure (SMILES): CN[C@H](CC(C)C)C(=O)N[C@H]1C(=O)N[C@@H](CC(N)=O)C(=O)N[C@H]2C(=O)N[C@H]3C(=O)N[C@H](C(=O)N[C@H](C(=O)O)c4cc(O)cc(O)c4-c4cc3ccc4O)[C@H](O[C@H]3C[C@](C)(N)[C@@H](O)[C@H](C)O3)c3ccc(c(Cl)c3)Oc3cc2cc(c3O[C@@H]2O[C@H](CO)[C@@H](O)[C@H](O)[C@H]2O[C@H]2C[C@](C)(NCc3ccc(-c4ccc(Cl)cc4)cc3)[C@@H](O)[C@H](C)O2)Oc2ccc(cc2Cl)[C@H]1O [oritavancin, N-(4-(4-chlorophenyl)benzyl)A82846B]
- Recovery of C. difficile spores following exposure [1]: not recovered
- Effect of antibiotic-exposed C. difficile spores on growth of Oxford S. aureus [2]: inhibitory to growth
- Survival longer than animals with equivalent dose and regimen (2×q2d) of vancomycin ([3]; 2 doses 50 mg/kg intravenous): 5 days
- Survival prolonged compared to untreated animals ([3]; one intravenous dose 50 mg/kg (Day 1), in 10% HPCD): 4 days
- Survival prolonged compared to untreated animals [3, 5]: 7 days
- Survival prolonged compared to untreated animals ([3]; two intravenous doses 50 mg/kg q2d (Days 1 and 3), in 10% HPCD): 5 days
- MIC [4]: ~4 µg/mL (≈ 2.23 µM)

Structure (SMILES): CN[C@H](CC(C)C)C(=O)N[C@H]1C(=O)N[C@@H](CC(N)=O)C(=O)N[C@H]2C(=O)N[C@H]3C(=O)N[C@H](C(=O)N[C@H](C(=O)O)c4cc(O)cc(O)c4-c4cc3ccc4O)[C@H](O)c3ccc(c(Cl)c3)Oc3cc2cc(c3O[C@@H]2O[C@H](CO)[C@@H](O)[C@H](O)[C@H]2O[C@H]2C[C@](C)(N)[C@H](O)[C@H](C)O2)Oc2ccc(cc2Cl)[C@H]1O [vancomycin]
- Proportional survival rate on Day 5 ([3]; 50 mg/kg q2d intravenous): 30%
- Treated animals that died between the second and third injections (Days 3 and 5) ([3]; 50 mg/kg q2d intravenous): 70%
- Survival prolonged compared to untreated animals [3, 5]: 8 days
